The values below come from US7691877B2, “Pharmaceuticals” (priority 2006, dated 2010).

One test addresses T1, TLR7 receptor (Homo sapiens, UniProt Q9NYK1).
T1 construct: PBL contain as a subpopulation plasmacytoid dendritic cells which are the natural interferon producing cells; endogenous in cells; host or cells: peripheral blood lymphocytes (PBL), containing plasmacytoid dendritic cells
T1 sequence (Q9NYK1 27-1049): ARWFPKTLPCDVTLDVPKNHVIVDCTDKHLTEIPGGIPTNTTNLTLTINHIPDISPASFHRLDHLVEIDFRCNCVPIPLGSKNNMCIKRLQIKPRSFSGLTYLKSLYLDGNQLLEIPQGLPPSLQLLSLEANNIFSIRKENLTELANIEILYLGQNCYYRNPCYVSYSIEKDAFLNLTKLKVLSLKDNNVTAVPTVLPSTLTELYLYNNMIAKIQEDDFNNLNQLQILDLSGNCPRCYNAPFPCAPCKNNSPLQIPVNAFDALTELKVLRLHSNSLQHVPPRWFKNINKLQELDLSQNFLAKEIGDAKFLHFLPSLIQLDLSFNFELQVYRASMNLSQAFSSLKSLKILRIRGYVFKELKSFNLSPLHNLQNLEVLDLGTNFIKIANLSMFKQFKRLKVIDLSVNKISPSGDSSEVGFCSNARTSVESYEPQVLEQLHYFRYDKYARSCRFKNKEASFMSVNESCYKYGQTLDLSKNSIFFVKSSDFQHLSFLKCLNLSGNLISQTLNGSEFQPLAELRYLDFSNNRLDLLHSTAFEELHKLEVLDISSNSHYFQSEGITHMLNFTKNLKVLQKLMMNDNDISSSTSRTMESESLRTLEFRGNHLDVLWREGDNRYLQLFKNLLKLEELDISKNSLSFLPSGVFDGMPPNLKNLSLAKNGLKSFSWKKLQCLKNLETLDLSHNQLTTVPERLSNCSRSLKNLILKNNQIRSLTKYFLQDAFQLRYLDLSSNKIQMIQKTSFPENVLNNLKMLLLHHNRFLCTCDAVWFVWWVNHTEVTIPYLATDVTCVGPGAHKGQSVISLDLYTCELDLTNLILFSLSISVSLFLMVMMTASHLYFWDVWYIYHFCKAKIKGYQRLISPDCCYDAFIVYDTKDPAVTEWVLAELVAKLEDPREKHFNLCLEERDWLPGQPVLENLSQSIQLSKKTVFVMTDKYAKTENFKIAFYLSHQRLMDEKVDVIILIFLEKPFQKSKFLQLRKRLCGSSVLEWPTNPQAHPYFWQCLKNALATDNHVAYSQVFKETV
As to the kind of experiment: PBL/HCV replicon bioassay. The format is cell-based. The settings on record: concentration applied to PBL (24 h) giving 50% reduction of HCV replicon levels (luciferase) after transfer of PBL culture medium to Huh-7 replicon cells (48 h). On the procedure: PBL contain as a subpopulation plasmacytoid dendritic cells which are the natural interferon producing cells during an infection and as such are an excellent model in which to profile interferon inducers. As an extremly sensitive antiviral bioassay, supernatant taken from PBL is assayed for antiviral activity in the HCV replicon system.
The HCV replicon (Huh-5-2[I389luc-ubi-neo-NS3-3′/ET]) is an in vitro model of HCV replication in which the luciferase reporter is incorporated into HCV sequences and stably maintained in the human hepatoma cell line Huh-7. The firefly luciferase reporter is expressed as a luciferase-ubiquitin-neomycin phosphotransferase fusion protein which is cleaved by host proteases to release luciferase. The replicon also contains an internal EMCV IRES, which drives translation of HCV NS3-5B polyprotein, which harbour cell culture adapted mutations to permit high cloning efficiency. […] Firefly luciferase activity is detected using a Bright-Glo™ Luciferase Assay System manufactured by Promega.
An initial 3 fold serial dilution series of compounds in 100% DMSO is prepared from stocks. The dilution series is then further diluted 100 fold with complete RPMI-FCS. The final concentration of DMSO in the assay is thus 0.1% and that of the test compound is 1/1000 in the 100% DMSO dilution series. PBL are prepared seeded at 5×10^5/well/90 μl into the previously prepared compound containing assay plates (96 well clear bottomed TC grade) and incubated for 24 h.
LucUbiNeo HCV replicon cells are seeded at 10^4/well/90 μl. These are incubated for 24 h. After 24 h, 10 μl of medium is transferred from the PBL assay plates to the HCV replicon plates and incubated for a further 48 h.

For test [1], the system named is HCV replicon containing cells. As to the kind of experiment: Direct response of HCV replicon containing cells to TLR agonists. It counts as cell-based, human. The following applies: applied directly to replicon cells, without PBL conditioned medium.
Test [2] deals with MEK, CDK1, CDK2, JNK, MSK, MSK-1, SGK, AMPK, MLCK, CHK-2, PDE3, PDE4 and PDE5. Kind of test: Selectivity for TLR7 over kinases and phosphodiesterase enzymes. It counts as biochemical.
Test [3] deals with all other known Toll-like Receptors. As to the kind of experiment: Selectivity for TLR7 over other Toll-like Receptors.
The test system of test [4] is MAP (mitogen-activated protein kinase). Kind of test: Selectivity for TLR7 over MAP. It counts as biochemical.

Turning to `Cc1cc2c([nH]c(=O)n2Cc2cccc(F)c2)c(N)n1` [Example 27], the EC50 on TLR7 receptor stood at 453 nM.

On to `Nc1nc(C(F)(F)F)cc2c1[nH]c(=O)n2Cc1ccc(Br)cc1` [Example 70], for which the EC50 at TLR7 receptor was 656 nM. Consider `CC(C)Cn1cnc2c(N)nc3ccccc3c21` [Imiquimod], for which the “direct response of HCV replicon containing cells to the TLR agonist” value in test [1] is “do not respond directly”.

As for `CC(C)c1cc2c([nH]c(=O)n2Cc2ccccc2)c(N)n1` [Example 24], the response at TLR7 receptor was half-maximal at 1600 nM (EC50). On the same count and under the same terms, then `Nc1nc(-c2ccccn2)cc2c1[nH]c(=O)n2Cc1ccccc1` [Example 32], with 1710 nM; and `CCc1coc(-c2cc3c([nH]c(=O)n3Cc3ccc(C)nc3)c(N)n2)n1` [Example 20, 4-Amino-6-(4-ethyl-oxazol-2-yl)-1-(6-methyl-pyridin-3-ylmethyl)-1,3-dihydro-imidazo[4,5-c]pyridin-2-one], with 700 nM. In the case of `Nc1nc(C2CC2)cc2c1[nH]c(=O)n2Cc1ccccc1` [Example 1, 4-Amino-1-benzyl-6-cyclopropyl-1,3-dihydro-imidazo[4,5-c]pyridin-2-one], the “selectivity for the TLR7 receptor over MEK, CDK1, CDK2, JNK, MSK, MSK-1, SGK, AMPK, MLCK, CHK-2, PDE3, PDE4 and PDE5” value (from here on “selectivity … PDE4 and PDE5”) in test [2] is reported as “selective”. Besides, the “selectivity for the TLR7 receptor over all other known Toll-like Receptors” value in test [3] was “selective”. For the same compound, a half-maximal effect at TLR7 receptor (EC50) was put at 933 nM. Turning to `COCCNCc1cc2c([nH]c(=O)n2Cc2ccccc2)c(N)n1` [Example 34], the EC50 at TLR7 receptor amounted to 1300 nM. The same measure, in the same setting: the figure for `COCc1cc2c([nH]c(=O)n2Cc2ccccc2)c(N)n1` [Example 40] is 427 nM; for `CCCc1cc2c([nH]c(=O)n2Cc2ccccc2)c(N)n1` [Example 23] it is 1080 nM.

Compound `COCCn1c(=O)[nH]c2c(N)nc(C(F)(F)F)cc21` [Example 55] had an EC50 at TLR7 receptor of 2000 nM. Still for that read-out and setting: then `Nc1nccc2c1[nH]c(=O)n2Cc1ccccc1` [Example 50], with 1970 nM. On the same count and under the same terms, then `COCCOc1cc2c([nH]c(=O)n2Cc2ccccc2)c(N)n1` [Example 17, 4-Amino-1-benzyl-6-(2-methoxy-ethoxy)-1,3-dihydro-imidazo[4,5-c]pyridin-2-one], with 955 nM.

At TLR7 receptor, `Cc1cc2c([nH]c(=O)n2Cc2cccc(C(F)(F)F)c2)c(N)n1` [Example 25] displayed an EC50 of 1000 nM. Still for that read-out and setting: then `COCCNc1cc2c([nH]c(=O)n2Cc2ccccc2)c(N)n1` [Example 49], with 2170 nM. On the same count and under the same terms, the figure for `Cc1ccc(Cn2c(=O)[nH]c3c(N)nc(-c4ncno4)cc32)cn1` [Example 82] is 127 nM; for `CCc1cc2c([nH]c(=O)n2Cc2ccccc2)c(N)n1` [Example 37] it is 786 nM.

Regarding `Nc1nc(-c2ncco2)cc2c1[nH]c(=O)n2Cc1ccccc1` [Example 12, 4-Amino-1-benzyl-6-oxazol-2-yl-1,3-dihydro-imidazo[4,5-c]pyridin-2-one], the “selectivity for the TLR7 receptor over MAP (mitogen-activated protein kinase)” value in test [4] is listed as “selective”. Further, the “selectivity … PDE4 and PDE5” value in test [2] is “selective”. Moreover, the “selectivity for the TLR7 receptor over all other known Toll-like Receptors” value in test [3] was “selective”. At TLR7 receptor, the EC50 stood at 240 nM. With `N#Cc1cc2c([nH]c(=O)n2Cc2ccccc2)c(N)n1` [Example 39], it took 2200 nM to reach a half-maximal effect at TLR7 receptor (EC50). Compound `Nc1nc(-c2ccccc2F)cc2c1[nH]c(=O)n2Cc1ccccc1` [Example 22, 4-Amino-1-benzyl-6-(2-fluoro-phenyl)-1,3-dihydro-imidazo[4,5-c]pyridin-2-one] displayed an EC50 on TLR7 receptor of 450 nM.

As for `Nc1nc2c(c3c1[nH]c(=O)n3Cc1ccccc1)CCC2` [Example 31], a half-maximal effect on TLR7 receptor (EC50) was put at 3260 nM. On to `Cc1nc(N)c2[nH]c(=O)n(Cc3ccccc3)c2c1C` [Example 3, 1-Benzyl-4-amino-6,7-dimethyl-1,3-dihydro-imidazo[4,5-c]Pyridin-2-one], for which, on TLR7 receptor, the EC50 amounted to 266 nM. Still for that read-out and setting: then `Nc1nc(C(F)(F)F)cc2c1[nH]c(=O)n2Cc1ccc(F)cc1` [Example 54], with 302 nM; and `Nc1nc(C(F)F)cc2c1[nH]c(=O)n2Cc1ccccc1` [Example 38], with 848 nM.

With `CC(=O)c1cc2c([nH]c(=O)n2Cc2ccccc2)c(N)n1` [Example 36], the EC50 on TLR7 receptor came out at 368 nM. On to `Cc1cc2c([nH]c(=O)n2Cc2ccccc2)c(N)n1` [Example 2, 4-Amino-1-benzyl-6-methyl-1,3-dihydro-imidazo[4,5-c]pyridin-2-one], for which the “selectivity … PDE4 and PDE5” value in test [2] is on record as “selective”. For the same compound, in test [3], the “selectivity for the TLR7 receptor over all other known Toll-like Receptors” value was “selective”. At TLR7 receptor, this compound registered an EC50 of 1540 nM. With `Cc1ccc(Cn2c(=O)[nH]c3c(N)nc(-c4cnco4)cc32)cn1` [Example 78], the EC50 on TLR7 receptor stood at 100 nM. As for `Nc1nc(-c2ncc[nH]2)cc2c1[nH]c(=O)n2Cc1ccccc1` [Example 21, 4-Amino-1-benzyl-6-(1H-imidazol-2-yl)-1,3-dihydro-imidazo[4,5-c]pyridin-2-one], at TLR7 receptor, the EC50 was 215 nM. Same read-out and setting: then `Nc1nc(C(F)(F)F)cc2c1[nH]c(=O)n2Cc1ccc(Cl)nc1` [Example 60], with 445 nM; and `Cc1cnn(-c2cc3c([nH]c(=O)n3Cc3ccccc3)c(N)n2)c1` [Example 86], with 550 nM; and `Nc1nc(-n2cccn2)cc2c1[nH]c(=O)n2Cc1ccccc1` [Example 83], with 470 nM. `COC(=O)c1cc2c([nH]c(=O)n2Cc2ccccc2)c(N)n1` [Example 4, 4-Amino-1-benzyl-2-oxo-2,3-dihydro-1H-imidazo[4,5-c]pyridine-6-carboxylic acid methyl ester]: the EC50 on TLR7 receptor worked out at 497 nM. The same measure, in the same setting: the figure for `Cc1nc(N)c2[nH]c(=O)n(Cc3ccc(F)cc3)c2c1C` [Example 61] is 1680 nM.
